Key:
HCT116 WT cells = assay: HCT116 WT (parent) cell line proliferation / cell viability (CellTiter-Glo, 6 days); type: cell-based; conditions: Homo sapiens, HCT-116, 144 h, 6 days treatment
Procedure, shortened: (§1)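 Isogenic HCT116 parent and MTAP-knockout cells in RPMI 1640 + 10% FBS, plated overnight, then exposed to compound for 6 days (37 °C, 5% CO2). Viability by CellTiter-Glo luminescence. Dilutions: 8–9 points from 1 or 10 μM (1:3), or 22 points from 10 or 50 μM (1:2); IC50 by 4-parameter or Hill −1 fit.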

HCT116 MTAP null cells = assay: HCT116 MTAP null cell line proliferation / cell viability (CellTiter-Glo, 6 days); type: cell-based; conditions: 144 h; HCT116 MTAP null cells, 6 days treatment, CellTiter-Glo cell viability; read-out: HCT-116 MTAP null IC50
Procedure, shortened: as §1

IC50 (HCT116 WT cells) [nM] | IC50 (HCT116 MTAP null cells) [nM] | SMILES
2640 | 33 | CN(C(=O)c1ccc2nc(N)c3c(c2c1)COC3)[C@@H]1COc2cc(C3=CCOCC3)ccc21 (single isomer, unassigned) [Example 612]
2630 | 860 | CN(C(=O)c1ccc2nc(N)c3c(c2c1)COC3)[C@H]1COc2cc(C3=CCOCC3)ccc21 (single isomer, unassigned) [Example 613]
3490 | 64 | CN(C(=O)c1ccc2nc(N)c3cnn(C)c3c2c1)[C@@H]1CCc2cc(-c3cnn(C)c3)ccc21 (single isomer, unassigned) [Example 623]
6510 | 75 | CN(C(=O)c1ccc2nc(N)c3cnn(C)c3c2c1)[C@H]1CCc2nc(-c3cnn(C)c3)ccc21 (single isomer, unassigned) [Example 624]
922 | 10 | CN(C(=O)c1ccc2nc(N)c3cnn(C)c3c2c1)[C@@H]1COCc2cc(-c3cnn(C(F)(F)F)c3)ccc21 (single isomer, unassigned) [Example 663]
1770 | 319 | CN(C(=O)c1ccc2nc(N)c3cnn(C)c3c2c1)[C@H]1COCc2cc(-c3cnn(C(F)(F)F)c3)ccc21 (single isomer, unassigned) [Example 664]
2510 | 875 | CN(C(=O)c1cc2c3c(c(N)nc2cc1F)COC3)[C@H]1COCc2cc(-c3ccc(C(F)(F)F)cc3)ccc21 (single isomer, unassigned) [Example 665]
1100 | 22 | CN(C(=O)c1cc2c3c(c(N)nc2cc1F)COC3)[C@@H]1COCc2cc(-c3ccc(C(F)(F)F)cc3)ccc21 (single isomer, unassigned) [Example 666]
1000 | 16 | CN(C(=O)c1ccc2nc(N)c3cnn(C)c3c2c1)[C@@H]1COCc2cc(-c3ccc(C(F)(F)F)cc3)ccc21 (single isomer, unassigned) [Example 669]
1120 | 536 | CN(C(=O)c1ccc2nc(N)c3cnn(C)c3c2c1)[C@H]1COCc2cc(-c3ccc(C(F)(F)F)cc3)ccc21 (single isomer, unassigned) [Example 670]
7960 | 168 | Cc1ccc2c(c1)CC[C@H]2N(C)C(=O)c1ccc2nc(N)c3cnn(C)c3c2c1 (single isomer, unassigned) [Example 680]
13000 | 215 | CCN(C(=O)c1cc2c(cn1)nc(N)c1cnn(C)c12)C1COc2cc(C(F)(F)F)ccc21 (stereo in doubt) [Example 238, 4-amino-N-ethyl-1-methyl-N-((3S)-6-(trifluoromethyl)-2,3-dihydro-1-benzofuran-3-yl)-1H-pyrazolo[4,3-c][1,7]naph-thyridine-8-carboxamide]
112 | 8 | Cn1ncc2c(N)nc3cc(F)c(C(=O)N(C4CC4)[C@@H]4COc5cc(C(F)(F)F)ccc54)cc3c21 [Example 200, (S)-4-amino-N-cyclopropyl-7-fluoro-1-methyl-N-(6-(trifluoromethyl)-2,3-dihydrobenzofuran-3-yl)-1H-pyrazolo[4,3-c]quinoline-8-carboxamide]
11400 | 83 | CN(C(=O)c1ccc2nc(N)c3c(c2c1)COC3)[C@@H]1COc2cc(-c3cnn(C)c3)ccc21 [Example 202, 4-amino-N-methyl-N-((3S)-6-(1-methyl-1H-pyrazol-4-yl)-2,3-dihydro-1-benzofuran-3-yl)-1,3-dihydrofuro[3,4-c]-quinoline-8-carboxamide]
4390 | 31 | C[C@H]1OCc2c1c(N)nc1ccc(C(=O)N(C)[C@@H]3COc4cc(-c5cnn(C)c5)ccc43)cc21 [Example 204, (3R)-4-amino-N,3-dimethyl-N-((3S)-6-(1-methyl-1H-pyrazol-4-yl)-2,3-dihydro-1-benzofuran-3-yl)-1,3-dihydrofuro[3,4-c]-quinoline-8-carboxamide]
